Data on three compounds can be found in patent publication US20140093499A1, “PHARMACEUTICAL COMBINATIONS COMPRISING DUAL ANGIOPOIETIN-2 / DLL4 BINDERS AND ANTI-VEGF AGENTS” (BOEHRINGER INGELHEIM INTERNATIONAL GMBH, priority 2012, published 2014).

For data set [1], the system named is RXF 1220 renal cancer xenograft. As to the kind of experiment: RXF 1220 patient-derived tumor xenograft efficacy in nude mice. The class given is in vivo, human. Particulars: BI-1 13.6 mg/kg twice weekly i.p., Sunitinib 40 mg/kg once daily, Bevacizumab 15 mg/kg twice weekly i.p. The source says:
(§1) The goal of the present study was to assess the efficacy of BI-1 in combination with Bevacizumab, BIBF1120 or Sunitinib in models of human non small cell lung cancer (LXFE 211, LXFE 1422), colon cancer (CXF 243), mammary cancer (MAXF 401), ovarian cancer (OVXF 1353), pancreatic cancer (PAXF 546) and renal cancer (RXF 1220) in nude mice. All models were patient-derived tumor xenografts (PDX), which were transplanted from patients to nude mice and passaged subcutaneously. These models retain most of the characteristics of the parental patient tumors including histology.
Sunitinib (Sutent®, Pfizer) tablets were ground with mortar and pestle and 108.48 mg powder (corresponding to 32 mg API; correction factor: 3.39) were dissolved in PBS (pH 5).
Tumor fragments were obtained from tumor xenografts in serial passage in nude mice. […] Mice were monitored daily. […]
(§2) The doses of BI-1 and Bevacizumab were calculated to the average body weight of all mice on day 1 (28 g) and administered intraperitoneally twice weekly in a volume of 100 μl per mouse. […]
(§3) Tumor diameters were measured twice weekly with a caliper. The volume of each tumor [in mm^3] was calculated according to the formula “tumor volume=length*diameter^2*0.5.” To monitor side effects of treatment, mice were inspected daily for abnormalities and body weight was determined twice weekly. […]

The test system of data set [2] is human non-small cell lung cancer (NCl-H1975) xenografts. As to the kind of experiment: NCl-H1975 subcutaneous xenograft efficacy in nude mice. It is filed as in vivo. The note with it: NCl-H1975, day 1 to day 14; Bevacizumab 25 mg/kg twice weekly i.p., BIBF 1120 50 mg/kg daily p.o., BI-1 13.6 mg/kg twice weekly i.p. As to the method:
The goal of the present study was to assess the efficacy of BI-1 in combination with Bevacizumab and BIBF 1120 in a model of human non small cell lung cancer (NCl-H1975) in nude mice.
• Model: Subcutaneous xenografts of the human non-small cell lung cancer (NCl-H1975) growing in nude mice
To establish subcutaneous tumors, NCl-H1975 cells were harvested by centrifugation, washed and resuspended in PBS+5% FCS at 5×10^7 cells/ml. 100 μl cell suspension containing 5×10^6 cells was then injected subcutaneously into the right flank of the mice (1 site per mouse). Mice were randomly distributed between the treatment and the vehicle control group (7 days after cell injection) when tumors were well established and had reached volumes of 63 to 104 mm3.
The doses of BI-1 and Bevacizumab were calculated to the average body weight of all mice on day 1 (28 g) and administered intraperitoneally twice weekly in a volume of 100 μl per mouse. BIBF 1120 was dosed according to the body weight (mg/kg) and administered daily perorally.
Tumor diameters were measured three times a week (Monday, Wednesday and Friday) with a caliper. The volume of each tumor [in mm3] was calculated according to the formula “tumor volume=length*diameter2*π/6.” To monitor side effects of treatment, mice were inspected daily for abnormalities and body weight was determined three times a week (Monday, Wednesday and Friday). […]

Data set [3] deals with CXF 243 colon cancer xenograft. As to the kind of experiment: CXF 243 patient-derived tumor xenograft efficacy in nude mice. It is filed as in vivo, human. Particulars: BI-1 13.6 mg/kg twice weekly i.p., BIBF1120 50 mg/kg once daily p.o., Bevacizumab 15 mg/kg twice weekly i.p.
From the text: as §1
(§4) Tumor fragments were obtained from tumor xenografts in serial passage in nude mice. After removal from donor mice, tumors were cut into fragments (4-5 mm diameter) and placed in PBS until subcutaneous implantation. Recipient mice were anesthetized by inhalation of isoflurane. […] Mice were monitored daily. […]
as §2, §3

The subject of data set [4] is LXFE 211 non small cell lung cancer xenograft. As to the kind of experiment: LXFE 211 patient-derived tumor xenograft efficacy in nude mice. Particulars: BI-1 13.6 mg/kg twice weekly i.p., BIBF1120 50 mg/kg once daily p.o., Bevacizumab 15 mg/kg twice weekly i.p. It is filed as in vivo, human.
From the text: as §1, §4, §2, §3

Data set [5] deals with LXFE 1422 non small cell lung cancer xenograft. As to the kind of experiment: LXFE 1422 patient-derived tumor xenograft efficacy in nude mice. The note with it: BI-1 13.6 mg/kg twice weekly i.p., BIBF1120 50 mg/kg once daily p.o., Bevacizumab 15 mg/kg twice weekly i.p. The class given is in vivo, human.
From the text: as §1, §4, §2, §3

Data set [6] relates to MAXF 401 mammary cancer xenograft. As to the kind of experiment: MAXF 401 patient-derived tumor xenograft efficacy in nude mice. The class given is in vivo, human. Particulars: BI-1 13.6 mg/kg twice weekly i.p., BIBF1120 50 mg/kg once daily p.o., Bevacizumab 15 mg/kg twice weekly i.p.
From the text: as §1, §4, §2, §3

In data set [7] the test system is OVXF 1353 ovarian cancer xenograft. As to the kind of experiment: OVXF 1353 patient-derived tumor xenograft efficacy in nude mice. It is filed as in vivo, human. The note with it: BI-1 13.6 mg/kg twice weekly i.p., BIBF1120 50 mg/kg once daily p.o., Bevacizumab 15 mg/kg twice weekly i.p.
From the text: as §1, §4, §2, §3

For data set [8], the system named is PAXF 546 pancreatic cancer xenograft. As to the kind of experiment: PAXF 546 patient-derived tumor xenograft efficacy in nude mice. The note with it: BI-1 13.6 mg/kg twice weekly i.p., BIBF1120 50 mg/kg once daily p.o., Bevacizumab 15 mg/kg twice weekly i.p. The class given is in vivo, human.
From the text: as §1, §4, §2, §3

Data set [9] in a line: Body weight and deaths in PDX tumor-bearing nude mice. The note with it: mouse, in vivo. Here is the method:
Mice were 5-7 week-old female Crl:NMRI-Foxn1^nu purchased from Charles River, Sulzfeld, Germany. After arrival, mice were allowed to adjust to ambient conditions for at least 5 days before they were used for the experiments. They were housed in individual ventilated Makrolon® type II long cages under standardized conditions at 25±1° C. temperatures and 55±10% humidity. Standardized diet (Teklad Global 19% Protein Extruded Diet (T.20195.12) from Harlan Laboratories) and sterile filtrated and acidified (pH 2.5) tap water were provided ad libitum. Ear clips were used to identify each mouse. Cage cards showing the study number, the animal identification number, the compound and dose level, the administration route as well as the schedule remained with the animals throughout the study.
Tumor diameters were measured twice weekly with a caliper. The volume of each tumor [in mm^3] was calculated according to the formula “tumor volume=length*diameter^2*0.5.” To monitor side effects of treatment, mice were inspected daily for abnormalities and body weight was determined twice weekly. Animals with tumor sizes exceeding 1.5 cm in diameter or 20% body weight loss were euthanized for ethical reasons.

`CCN(CC)CCNC(=O)c1c(C)[nH]c(/C=C2\C(=O)Nc3ccc(F)cc32)c1C` [Sunitinib]: the inhibition of tumour growth (TGI) in [1] was determined as 62%.
`COC(=O)c1ccc2c(c1)NC(=O)/C2=C(\Nc1ccc(N(C)C(=O)CN2CCN(C)CC2)cc1)c1ccccc1` [BIBF 1120]: the “median TGI (tumor growth inhibition)” value in data set [2] is recorded as 75%. Besides, the tumour growth inhibition (TGI) in data set [3] is given as 65%; in data set [4], 40%; in [5], 57%; in data set [6], 63%; in [7] it was 78%; in data set [8] it was 69%. Also, the “maximum median body weight loss” value in data set [9] is recorded as 5.9%.
Take Bevacizumab: the “median TGI (tumor growth inhibition)” value in data set [2] is 82%. For the same compound, the tumour growth inhibition (TGI) in data set [4] stood at 37%; in [5] it was 63%; in [6] it was 68%; in data set [8] it was 59%. Besides, in data set [9], the “maximum median body weight loss” value came out at 9.1%.
